Measurements: patent publication US12441768B2, “Compositions and methods for treating endometriosis” (EndoMet Biosciences, Inc., priority 2018, dated 2025)
Like-named read-outs stand apart in the source and are kept apart here. Where a SMILES comes first, the peptide text is derived from it.

Biological target: T1, β-catenin (Homo sapiens, UniProt P35222)
T1 sequence (P35222 1-781): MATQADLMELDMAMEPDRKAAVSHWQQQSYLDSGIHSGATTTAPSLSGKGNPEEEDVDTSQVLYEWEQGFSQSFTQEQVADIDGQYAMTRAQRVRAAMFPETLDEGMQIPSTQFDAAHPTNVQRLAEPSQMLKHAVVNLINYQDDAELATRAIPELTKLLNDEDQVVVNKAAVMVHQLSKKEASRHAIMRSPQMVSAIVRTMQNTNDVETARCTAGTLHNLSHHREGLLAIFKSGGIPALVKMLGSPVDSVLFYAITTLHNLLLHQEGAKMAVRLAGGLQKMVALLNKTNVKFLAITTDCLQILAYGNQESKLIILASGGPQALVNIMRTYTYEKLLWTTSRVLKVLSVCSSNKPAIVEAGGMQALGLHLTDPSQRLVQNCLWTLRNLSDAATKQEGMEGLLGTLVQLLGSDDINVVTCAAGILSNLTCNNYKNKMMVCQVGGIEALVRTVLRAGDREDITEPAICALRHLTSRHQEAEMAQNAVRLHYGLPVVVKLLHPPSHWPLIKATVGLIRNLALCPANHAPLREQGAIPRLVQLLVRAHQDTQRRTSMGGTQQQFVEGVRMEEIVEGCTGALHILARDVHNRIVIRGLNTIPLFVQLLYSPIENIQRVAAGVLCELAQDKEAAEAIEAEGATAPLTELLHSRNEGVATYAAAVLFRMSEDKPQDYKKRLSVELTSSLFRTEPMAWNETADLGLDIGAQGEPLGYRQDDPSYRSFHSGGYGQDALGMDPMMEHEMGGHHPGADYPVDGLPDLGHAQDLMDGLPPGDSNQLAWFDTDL
Assay: KD50 measurement using competitive fluorescence polarization (FP) with labelled TCF4
Format: binding
Details: fluorescence polarization, β-catenin
How it was run: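 Tracer: labelled TCF4, 5 nM; protein 100 nM; RT incubation. Competitor dilution series 10 nM–30 uM. FP read ex 470 / em 520 nm. n = 3.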

Structure (SMILES) | β-Cat FP Hill slope | Kd (read-out: β-Cat FP KD) [nM] | Kd (β-Cat FP KD) [nM]
CC[C@H](C)[C@@H]1NC(=O)[C@H](CC(C)C)NC(=O)[C@H](Cc2ccccc2)NC(=O)[C@H](Cc2c[nH]c3ccccc23)NC(=O)[C@@H](N)CCCCNC(=O)CC[C@@H](C(=O)NCC(=O)O)NC(=O)[C@H](Cc2ccccc2)NC(=O)[C@H](CO)NC1=O [compound 227] (HELM PEPTIDE1{K.W.F.L.I.S.F.E.G}$PEPTIDE1,PEPTIDE1,1:R3-8:R3$$$V2.0) | 0.5 | 1000 to 10000 | –
CC[C@H](C)[C@H](NC(=O)[C@H](CC(=O)O)NC(=O)[C@H](CCCNC(=N)N)NC(=O)[C@H](CC(C)C)NC(=O)[C@@H](NC(=O)[C@H](CCC(N)=O)NC(=O)[C@H](CC(C)C)NC(=O)[C@H](CO)NC(=O)[C@H](CCCNC(=N)N)NC(=O)[C@H](CCC(=O)O)NC(=O)[C@H](CCCNC(=N)N)NC(=O)[C@H](Cc1c[nH]cn1)NC(=O)[C@H](CCC(=O)O)NC(=O)[C@H](CC(C)C)NC(=O)[C@H](CCC(N)=O)NC(=O)[C@H](CCC(=O)O)NC(=O)[C@H](CCC(N)=O)NC(=O)[C@H](CO)NC(=O)[C@H](CC(C)C)NC(=O)CNC(=O)[C@H](CC(=O)O)NC(=O)[C@@H]1CCCN1C(=O)[C@H](CC(N)=O)NC(C)=O)[C@@H](C)O)C(=O)N[C@@H](CCC(N)=O)C(=O)N[C@@H](CCCNC(=N)N)C(=O)N[C@@H](CCSC)C(=O)N[C@@H](CC(C)C)C(=O)N[C@@H](Cc1ccccc1)C(=O)N1CCC[C@H]1C(=O)N[C@@H](CC(=O)O)C(=O)N[C@@H](CCC(=O)O)C(=O)N[C@@H](CCCCN)C(=O)N[C@@H](CCC(=O)O)C(=O)N[C@@H](Cc1ccccc1)C(=O)N[C@H](C(=O)NCCC(=O)NCCC(=O)N[C@@H](CCCCN)C(N)=O)[C@@H](C)O [compound 270] | – | > 30000 | –
CC[C@H](C)[C@@H]1NC(=O)[C@H](CC(C)C)NC(=O)[C@H](Cc2ccccc2)NC(=O)[C@H](Cc2c[nH]c3ccccc23)NC(=O)[C@@H](N)CCCCNC(=O)CC[C@@H](C(=O)NCC(=O)O)NC(=O)[C@H](Cc2c[nH]c3ccccc23)NC(=O)[C@H](Cc2ccccc2)NC(=O)[C@H](CS)NC1=O [compound 272] (HELM PEPTIDE1{K.W.F.L.I.C.F.W.E.G}$PEPTIDE1,PEPTIDE1,1:R3-9:R3$$$V2.0) | 0.84 | 1000 to 10000 | –
CC[C@H](C)[C@@H]1NC(=O)[C@@H](NC(=O)[C@H](CCC(N)=O)NC(=O)[C@H](C)N(C)C(=O)[C@H](Cc2c[nH]c3ccccc23)NC(=O)COc2ccccc2)CCCCNC(=O)CC[C@@H](C(=O)N[C@@H](Cc2c[nH]cn2)C(=O)N[C@H](C(=O)N[C@@H](CCC(N)=O)C(=O)N[C@@H](CCCNC(=N)N)C(=O)N[C@H](C(=O)N[C@@H](Cc2c[nH]c3ccccc23)C(=O)NCC(N)=O)C(C)C)C(C)C)NC(=O)[C@H](CC(=O)O)NC(=O)[C@H](CC2CCCCC2)NC1=O [compound 408] (HELM PEPTIDE1{[O=C(COc1ccccc1)[*:2]].W.[meA].Q.K.I.[Cha].D.E.H.V.Q.R.V.W.G.[am]}$PEPTIDE1,PEPTIDE1,5:R3-9:R3$$$V2.0) | – | – | > 30000
CC[C@H](C)[C@@H]1NC(=O)[C@H](CC(C)C)NC(=O)[C@H](Cc2ccccc2)NC(=O)[C@@H](NC(C)=O)CCCCNC(=O)C[C@@H](C(=O)O)NC(=O)[C@H](Cc2c[nH]c3ccccc23)NC(=O)[C@H](Cc2ccccc2)NC(=O)[C@H](C)NC1=O [compound 254] (HELM PEPTIDE1{[ac].K.F.L.I.A.F.W.D}$PEPTIDE1,PEPTIDE1,2:R3-9:R3$$$V2.0) | – | > 30000 | –

Second part, led by results:

β-Cat FP Hill slope | Kd (read-out: β-Cat FP KD) [nM] | Structure (SMILES) | Kd (β-Cat FP KD) [nM]
– | < 400 | CCCCCCCCC(=O)N[C@@H](Cc1c[nH]c2ccccc12)C(=O)N(C)[C@@H](C)C(=O)N[C@@H](CCC(N)=O)C(=O)N[C@H]1CCCNC(=O)CC[C@@H](C(=O)N[C@@H](Cc2c[nH]cn2)C(=O)N[C@H](C(=O)N[C@@H](CCC(N)=O)C(=O)N[C@@H](CCCNC(=N)N)C(=O)N[C@H](C(=O)N[C@@H](Cc2c[nH]c3ccccc23)C(=O)NCC(N)=O)C(C)C)C2CCCCC2)NC(=O)[C@H](CC(=O)O)NC(=O)[C@H](CC(C)C)NC(=O)[C@H]([C@@H](C)CC)NC1=O [compound 425] (HELM PEPTIDE1{[CCCCCCCCC(=O)[*:2]].W.[meA].Q.[Orn].I.L.D.E.H.[O=C([C@@H](N[*:1])C1CCCCC1)[*:2]].Q.R.V.W.G.[am]}$PEPTIDE1,PEPTIDE1,5:R3-9:R3$$$V2.0) | –
– | < 400 | CCCCCCCCCCCC(=O)N[C@@H](Cc1c[nH]c2ccccc12)C(=O)N1CCC[C@H]1C(=O)N[C@@H](CCC(N)=O)C(=O)N[C@@H](CO)C(=O)N[C@H](C(=O)N[C@@H](CC(C)C)C(=O)N[C@@H](CC(=O)O)C(=O)N[C@H]1CCCCNC(=O)C[C@@H](C(=O)N[C@H](C(=O)N[C@@H](Cc2c[nH]c3ccccc23)C(N)=O)C(C)C)NC(=O)[C@H](CCC(N)=O)NC(=O)[C@H](C2CCCCC2)NC(=O)[C@H](Cc2c[nH]cn2)NC1=O)[C@@H](C)CC [compound 463] (HELM PEPTIDE1{[CCCCCCCCCCCC(=O)[*:2]].W.P.Q.S.I.L.D.K.H.[O=C([C@@H](N[*:1])C1CCCCC1)[*:2]].Q.D.V.W.[am]}$PEPTIDE1,PEPTIDE1,9:R3-13:R3$$$V2.0) | –
– | < 400 | CCCCCCCCCCCC(=O)N[C@@H](Cc1c[nH]c2ccccc12)C(=O)N1CCC[C@H]1C(=O)N[C@@H](CCC(N)=O)C(=O)N[C@@H](CO)C(=O)N[C@H](C(=O)N[C@@H](CC(C)C)C(=O)N[C@@H](CC(=O)O)C(=O)N[C@H]1CCC(=O)NCCCC[C@@H](C(=O)N[C@H](C(=O)N[C@@H](Cc2c[nH]c3ccccc23)C(N)=O)C(C)C)NC(=O)[C@H](CCC(N)=O)NC(=O)[C@H](C2CCCCC2)NC(=O)[C@H](Cc2c[nH]cn2)NC1=O)[C@@H](C)CC [compound 469] (HELM PEPTIDE1{[CCCCCCCCCCCC(=O)[*:2]].W.P.Q.S.I.L.D.E.H.[O=C([C@@H](N[*:1])C1CCCCC1)[*:2]].Q.K.V.W.[am]}$PEPTIDE1,PEPTIDE1,9:R3-13:R3$$$V2.0) | –
0.7 | < 400 | CC[C@H](C)[C@H](NC(=O)[C@H](CO)NC(=O)[C@H](CCC(N)=O)NC(=O)[C@H](C)N(C)C(=O)[C@H](Cc1c[nH]c2ccccc12)NC(C)=O)C(=O)N[C@@H](CC(C)C)C(=O)N[C@@H](CC(=O)O)C(=O)N[C@H]1CCC(=O)NCCCC[C@@H](C(=O)N[C@H](C(=O)N[C@@H](Cc2c[nH]c3ccccc23)C(=O)NCC(N)=O)C(C)C)NC(=O)[C@H](CCC(N)=O)NC(=O)[C@H](C(C)C)NC(=O)[C@H](Cc2c[nH]cn2)NC1=O [compound 437] (HELM PEPTIDE1{[ac].W.[meA].Q.S.I.L.D.E.H.V.Q.K.V.W.G.[am]}$PEPTIDE1,PEPTIDE1,9:R3-13:R3$$$V2.0) | –
0.7 | 400 to 1000 | CC[C@H](C)[C@@H]1NC(=O)[C@@H](NC(=O)[C@H](CCC(N)=O)NC(=O)[C@H](C)N(C)C(=O)[C@H](Cc2c[nH]c3ccccc23)NC(C)=O)CCCCNC(=O)C[C@@H](C(=O)N[C@@H](Cc2c[nH]cn2)C(=O)N[C@H](C(=O)N[C@@H](CCC(N)=O)C(=O)N[C@@H](C)C(=O)N[C@H](C(=O)N[C@@H](Cc2c[nH]c3ccccc23)C(N)=O)C(C)C)C2CCCCC2)NC(=O)[C@H](CC(N)=O)NC(=O)[C@H](CC(C)C)NC1=O [compound 458] (HELM PEPTIDE1{[ac].W.[meA].Q.K.I.L.N.D.H.[O=C([C@@H](N[*:1])C1CCCCC1)[*:2]].Q.A.V.W.[am]}$PEPTIDE1,PEPTIDE1,5:R3-9:R3$$$V2.0) | –
– | < 400 | CCCCCCCCCCCC(=O)N[C@@H](Cc1c[nH]c2ccccc12)C(=O)N(C)[C@@H](C)C(=O)N[C@@H](CCC(N)=O)C(=O)N[C@H]1CCCCNC(=O)C[C@@H](C(=O)N[C@@H](Cc2c[nH]cn2)C(=O)N[C@H](C(=O)N[C@@H](CCC(N)=O)C(=O)N[C@@H](C)C(=O)N[C@H](C(=O)N[C@@H](Cc2c[nH]c3ccccc23)C(N)=O)C(C)C)C2CCCCC2)NC(=O)[C@H](CC(N)=O)NC(=O)[C@H](CC(C)C)NC(=O)[C@H]([C@@H](C)CC)NC1=O [compound 459] (HELM PEPTIDE1{[CCCCCCCCCCCC(=O)[*:2]].W.[meA].Q.K.I.L.N.D.H.[O=C([C@@H](N[*:1])C1CCCCC1)[*:2]].Q.A.V.W.[am]}$PEPTIDE1,PEPTIDE1,5:R3-9:R3$$$V2.0) | –
0.76 | < 400 | CC[C@H](C)[C@H](NC(=O)[C@H](CO)NC(=O)[C@H](CCC(N)=O)NC(=O)[C@@H]1CCCN1C(=O)[C@H](Cc1c[nH]c2ccccc12)NC(C)=O)C(=O)N[C@@H](CC(C)C)C(=O)N[C@@H](CC(=O)O)C(=O)N[C@H]1CCCCNC(=O)C[C@@H](C(=O)N[C@H](C(=O)N[C@@H](Cc2c[nH]c3ccccc23)C(N)=O)C(C)C)NC(=O)[C@H](CCC(N)=O)NC(=O)[C@H](C2CCCCC2)NC(=O)[C@H](Cc2c[nH]cn2)NC1=O [compound 462] (HELM PEPTIDE1{[ac].W.P.Q.S.I.L.D.K.H.[O=C([C@@H](N[*:1])C1CCCCC1)[*:2]].Q.D.V.W.[am]}$PEPTIDE1,PEPTIDE1,9:R3-13:R3$$$V2.0) | –
2.2 | < 400 | CC[C@H](C)[C@H](NC(=O)[C@H](CC(C)C)NC(=O)[C@H](Cc1ccccc1)NC(=O)[C@H](Cc1c[nH]c2ccccc12)NC(=O)[C@H](CCSC)NC(C)=O)C(=O)N[C@@H](C)C(=O)N[C@@H](Cc1ccccc1)C(=O)N[C@@H](Cc1c[nH]c2ccccc12)C(=O)NCC(=O)O [compound 274] (Ac-MWFLIAFWG-OH) | –
